According to the CheMixHub viscosity set:
Where “and” joins values, the source holds several entries; their conditions need not be identical. Equal values may be shown once.

BrC(Br)Br
viscosity
Settings | 298 K | 298.15 K | 303.15 K | 308.15 K | 313.15 K | 318 K
101 kPa | – | – | 1.843 mPa·s and 1.861 mPa·s | 1.729 mPa·s and 1.746 mPa·s | 1.623 mPa·s and 1.641 mPa·s | –
101.3 kPa | 1.873 mPa·s | 1.912 mPa·s | 1.79 mPa·s | 1.684 mPa·s | – | –
101.33 kPa | – | 1.912 mPa·s and 1.977 mPa·s | 1.79 mPa·s and 1.857 mPa·s | 1.684 mPa·s and 1.733 mPa·s | – | 1.476 mPa·s
